Laboratory results from PMC7772748 (Amino acids, 2020).
Where no end group is shown, it is not given here.

Columns and labels:
[1] = system: RAW 264.7 cells; experiment: Proliferation assay; format: cell-based; details: 1 μM, third day of culture (72 h), MTT; n = 3 experiments
[2] = system: CRF(1–16)/R1ΔN chimera of CRF1R (HEK 293 cells, transient expression); details: ref Nielsen et al. 2000; cited from earlier work
[3] = system: 3T3L1 mature adipocytes; experiment: CXCL1 release from differentiated 3T3L1 white adipocytes; format: cell-based, mouse; details: 10 nM CRF alone, 24 h, differentiated white 3T3L1 adipocytes, ELISA

Compound	proliferation rate of RAW 264.7 cells compared to vehicle-treated cells [1]	block of the constitutive activity (activation) of the CRF(1–16)/R1ΔN chimera [2]	production of CXCL1 compared to untreated (control) cells [3]
astressin	levels similar to those achieved with astressin	not blocked	
CCCCN(CC)c1nc(C)nc2c1c(C)c(C)n2-c1c(C)cc(C)cc1C [antalarmin]		blocked	
corticotropin-releasing factor (SEEPPISLDLTFHLLREVLEMARAEQLAQQAHSNRKLMEII; ends and bridges not checked; UniProt P06850 154-194, looked up) [CRF]			significantly reduced
